Results as given in patent publication US20100227896A1, “USE OF VITAMIN PP COMPOUNDS” (ASTELLAS DEUTSCHLAND GMBH, priority 1998, published 2010).
Where two headings read alike, the source gives them in different places.

Legend:
[1] = tested on: Cryptic cells of the large intestine; assay: Growth/vitality of primary cryptic cells of the large intestine (crystal violet, MTT-test, 4 days treatment); assay type: cell-based
From the text: Cryptic cells of the large intestine were isolated according to the method of Booth et al. (1995) with slight modifications. The removed large intestine was cut into pieces, the parts were finally cut after several-fold washing and digested with collagenase and dispase. Subsequently, the larger tissue pieces remaining in the suspension were sedimented, the supernatant was decanted and stored. The pellet was digested again under vigorous shaking with medium in order to release additional cryptic cells. After sedimentation, the supernatant was poured off again, combined with the first fraction and the cryptic cells were centrifuged at 50×g. After a further washing step, the centrifuge cryptic cells were suspended in culture medium and seeded at a density of 800 cells per well in 24-well-cultured dishes which were previously coated with collagen. The cells were incubated at 37° C. in a saturated water vapour atmosphere with 92.5% air and 7.5% CO2. […]
The growth of the culture was photometrically quantified after staining with crystal violet as a measure for the cell number and the vitality of the cells was determined with the MTT-test whose reaction depends on living cells with active mitochondria. Based on dose response curves, the IC50-values were calculated which are also used in the following Table 3 for characterization of the individual substance activity: […]

lymphocytes = assay: Vitality of freshly isolated spleen lymphocytes (flow cytometry, propidium iodide / 3,3'-dihexyloxacarbocyanin iodide, 2 days); assay type: cell-based, Swiss mouse; settings: Mus musculus, Lymphocyte
From the text: Many cytostatic agents and radiation therapies as well have a cytcotoxic effect not only on tumor cells but also on the blood cell system. This leads to a weakening of the immune defence which can lead to life threatening infections. In addition, this can result in a so-called tumor lyse syndrome which can, lead to the death of the patient by the relatively quick death of large cell masses. In order to test the possibility for a therapeutical use of nicotinic acid and/or nicotinamide for preventing such life threatening conditions by massive cell death, the effect of the substance was tested on freshly isolated lymphocytes as follows:
The spleen of a Swiss mouse served as a lymphocyte source.
The lymphocyte population was isolated from the spleen cell suspension over a ficoll gradient and taken up in IMEM-ZO culture medium with 0,1% dextran 70,000 and 2% foetal calf serum. […] Subsequently, 10,000 cells per each sample were measured on a flow-through cytometer and the percentage amount of vital cells in the population was determined. By means of the dose-response curves, IC50-values were calculated which were also employed in the following Tables for the characterization of the individual substances: […]

THP-1 cells = assay: Growth inhibition of THP-1 human leukaemia cells (WST-1 reagent, four days incubation); assay type: cell-based; settings: for IC50: Homo sapiens; for effect on the growth-inhibiting effect of K22.097: THP-1 cells, summary of Table 1
Experimental: THP-1 cells derived from a human monocytic leukaemia plated at a density of 200,000 cells/ml in 96-well plastic dishes. Cultivation occurred in RPMI 1640 nutrient medium with 10% foetal calf serum (FCS) in a tissue culture incubator with a gas mixture of 5% CO2 and 95% air at a temperature of 37° C. For the individual concentrations and the controls without test substances as well as for the background with nutrient medium but without cells, three-fold batches were done for each. After four days of substance incubation 20 μl WST-1 reagent (Boehringer Mannheim) was respectfully pipetted in each individual well. After 30 to 60 minute incubation in the tissue culture incubator at 37° C. and 5% CO2, the light extinction was measured in an ELISA reader at 450 nm wave length. The backgrounds were each subtracted from the typical measured valves. (The IC50-values (defined as that concentration in which the cell growth was inhibited by 50%) was taken from the dose-response curves and given as a comparative measurement for the activity of the test compounds.
Furthermore, the anti-tumor substance Nr.159 with the internal label K22.175 according to the publication PCT/EP97/03245=WO97/48696 in the form of N-[4-(1-benzoylpiperidin-4-yl)-butyl]-3-(pyridin-3-yl)-acrylamide synthesized by the applicant was included in the experimental examinations. The results obtained therefrom confirm the above described finding on the useful effect according to the invention of the vitamin PP compounds.

NMRI mice = tested on: NMRI mice
Experimental: Parallel to this, 500 mg/kg nicotinamide was simultaneously intraperitoneally administered each to the individual dosage groups. 7 days after the beginning of treatment, the blood picture of the individual animals was examined.

Q: How did the IC50 ([1]; read-out: IC50-Value for K22.097, primary intestine cryptic cells, + 1 mM nicotinamide) turn out when `O=C(CCc1cccnc1)NCCCCC1CCN(C(c2ccccc2)c2ccccc2)CC1` [K22.097, N-[4-(1-diphenylmethylpiperidin-4-yl)-butyl]-3-(pyridin-3-yl)-propionamide] was run?
A: The IC50 was over 10000 nM.

Q: What about the IC50 ([1]; read-out: IC50-Value for K22.097, primary intestine cryptic cells, K22.097 alone) of the same compound?
A: Its IC50 is 100 nM.

Q: What about the IC50 (lymphocytes; read-out: IC50-Value for K22.097, mouse spleen lymphocytes, + 10 mM nicotinamide) of the same compound?
A: Its IC50 is over 1000 nM.

Q: And the IC50 (lymphocytes; read-out: IC50-Value for K22.097, mouse spleen lymphocytes, K22.097 alone)?
A: Its IC50 is 1 nM.

Q: And the IC50 (THP-1 cells; THP-1, read-out: IC50-Value for K22.097, THP-1 cells, + 0.1 mM nicotinic acid)?
A: The IC50 was over 10000 nM.

Q: And the IC50 (THP-1 cells; THP-1, read-out: IC50-Value for K22.097, THP-1 cells, + 1 mM nicotinamide)?
A: The IC50 was over 10000 nM.

Q: And the IC50 (THP-1 cells; THP-1, read-out: IC50-Value for K22.097, THP-1 cells, K22.097 alone)?
A: Its IC50 is 10 nM.

Q: And the Leukocyte number (NMRI mice; 2 × 100 mg/kg K22.097 orally + 2 × 500 mg/kg nicotinamide intraperitoneally, day 7)?
A: The Leukocyte number was 6,900 per μl.

Q: What about the Leukocyte number (NMRI mice; 2 × 100 mg/kg K22.097 orally over 4 days, blood picture 7 days after beginning of treatment) of the same compound?
A: Its Leukocyte number is 1,100 per μl.

Q: And the Leukocyte number (NMRI mice; 2 × 120 mg/kg K22.097 orally + 2 × 500 mg/kg nicotinamide intraperitoneally, day 7)?
A: The Leukocyte number was 5,900 per μl.

Q: And the Leukocyte number (NMRI mice; 2 × 120 mg/kg K22.097 orally over 4 days, blood picture 7 days after beginning of treatment)?
A: The Leukocyte number was 500 per μl.

Q: For `O=C(C=Cc1cccnc1)NCCCCC1CCN(C(=O)c2ccccc2)CC1` [K22.175, N-[4-(1-benzoylpiperidin-4-yl)-butyl]-3-(pyridin-3-yl)-acrylamide], which IC50 (THP-1 cells; THP-1, THP-1 cells, + 0.1 mM nicotinic acid, read-out: IC50-Value for K22.175) is on record?
A: Its IC50 is over 30 nM.

Q: What about the IC50 (THP-1 cells; THP-1, THP-1 cells, + 1 mM nicotinamide, read-out: IC50-Value for K22.175) of the same compound?
A: Its IC50 is over 30 nM.

Q: And the IC50 (THP-1 cells; THP-1, THP-1 cells, K22.175 alone, read-out: IC50-Value for K22.175)?
A: The IC50 was 0.5 nM.

Q: For `NC(=O)c1cccnc1` [nicotinamide, reference compound], which “effect on the growth-inhibiting effect of K22.097” value (THP-1 cells) is on record?
A: The value was “abrogated”.

Q: And the Leukocyte number (NMRI mice; mouse, in vivo, ip, 500 mg/kg)?
A: The Leukocyte number was 4,800 per μl.

Q: How did the “effect on the growth-inhibiting effect of K22.097” value (THP-1 cells) turn out when `O=C(O)c1cccnc1` [nicotinic acid, reference compound] was run?
A: Its value is “abrogated”.
